Experimental data reported in patent US20220119354A1, “DIAMINO-SUBSTITUTED PYRIDINES AND PYRIMIDINES AS HERBICIDES” (FMC Corporation, priority 2019, published 2022).

Columns and labels:
Type in all cases: in vivo
[1] = test system: sedge, umbrella (small-flower umbrella sedge, Cyperus difformis); assay: Test B flooded paddy test, umbrella sedge; conditions: Flood, 250 g ai/ha, applied to paddy water, 2-leaf stage, visual evaluation after 13 to 15 d
Summary of the method: (§1)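 Visual injury scores run from 0 (no effect) to 100 (complete control), assigned by comparison with controls 13 to 15 d after treatment. Treatment went into floodwater standing 3 cm over the soil of pots holding 2-leaf plants.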

[2] = test system: foxtail, giant (Setaria faberii); assay: Test A preemergence, giant foxtail; conditions: 0 to 100 scale; for Foxtail, Giant plant response rating: 0 is no effect, 100 is complete control
Summary of the method: (§2)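 Greenhouse evaluation: treated and untreated pots were held about 10 d, then injury was rated visually from 0 (no effect) to 100 (complete control). Application was preemergence to soil or postemergence to seedlings 2–10 cm tall, using a non-phytotoxic solvent formulation with surfactant.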

[3] = test system: ryegrass, Italian (Lolium multiflorum); assay: Test A preemergence, Italian ryegrass; conditions: 0 to 100 scale; for Ryegrass, Italian plant response rating: 0 is no effect, 100 is complete control
Summary of the method: as §2

[4] = test system: ducksalad (Heteranthera limosa); assay: Test B flooded paddy test, ducksalad; conditions: Flood, 250 g ai/ha, applied to paddy water, 2-leaf stage, visual evaluation after 13 to 15 d
Summary of the method: as §1

[5] = test system: kochia (Kochia scoparia); assay: Test A preemergence, kochia; conditions: 0 to 100 scale; for Kochia plant response rating: 0 is no effect, 100 is complete control
Summary of the method: as §2

[6] = test system: rice (Oryza sativa); assay: Test B flooded paddy test, rice; conditions: Flood, 250 g ai/ha, applied to paddy water, 2-leaf stage, visual evaluation after 13 to 15 d
Summary of the method: as §1

[7] = test system: pigweed (Amaranthus retroflexus); assay: Test A postemergence, pigweed; conditions: 0 to 100 scale
Summary of the method: as §2

[8] = test system: wheat (Triticum aestivum); assay: Test A postemergence, wheat; conditions: 0 to 100 scale
Summary of the method: as §2

[9] = test system: ragweed (common ragweed, Ambrosia elatior); assay: Test A preemergence, ragweed; conditions: 0 to 100 scale; for Ragweed plant response rating: 0 is no effect, 100 is complete control
Summary of the method: as §2

[10] = test system: corn (Zea mays); assay: Test A postemergence, corn; conditions: 0 to 100 scale
Summary of the method: as §2

[11] = test system: ragweed (common ragweed, Ambrosia elatior); assay: Test A postemergence, ragweed; conditions: 0 to 100 scale
Summary of the method: as §2

[12] = test system: foxtail, giant (Setaria faberii); assay: Test A postemergence, giant foxtail; conditions: 0 to 100 scale
Summary of the method: as §2

[13] = test system: ryegrass, Italian (Lolium multiflorum); assay: Test A postemergence, Italian ryegrass; conditions: 0 to 100 scale
Summary of the method: as §2

[14] = test system: barnyardgrass (Echinochloa crus-galli); assay: Test A preemergence, barnyardgrass; conditions: 0 to 100 scale; for Barnyardgrass plant response rating: 0 is no effect, 100 is complete control
Summary of the method: as §2

[15] = test system: pigweed (Amaranthus retroflexus); assay: Test A preemergence, pigweed; conditions: 0 to 100 scale; for Pigweed plant response rating: 0 is no effect, 100 is complete control
Summary of the method: as §2

[16] = test system: galium (catchweed bedstraw, Galium aparine); assay: Test A postemergence, galium; conditions: 0 to 100 scale
Summary of the method: as §2

[17] = test system: barnyardgrass (Echinochloa crus-galli); assay: Test B flooded paddy test, barnyardgrass; conditions: Flood, 250 g ai/ha, applied to paddy water, 2-leaf stage, visual evaluation after 13 to 15 d
Summary of the method: as §1

[18] = test system: kochia (Kochia scoparia); assay: Test A postemergence, kochia; conditions: 0 to 100 scale
Summary of the method: as §2

[19] = test system: barnyardgrass (Echinochloa crus-galli); assay: Test A postemergence, barnyardgrass; conditions: 0 to 100 scale
Summary of the method: as §2

[20] = test system: blackgrass (Alopecurus myosuroides); assay: Test A postemergence, blackgrass; conditions: 0 to 100 scale
Summary of the method: as §2

[21] = 125 g ai/ha, 0 no effect, 100 complete control
[22] = 500 g ai/ha, 0 no effect, 100 complete control

## C[C@@H](Nc1nc(N)c(C(F)(F)F)c(C(F)(F)F)n1)c1cc2ccccc2o1 [Compound 65]
[1]
  Plant response rating, Sedge, Umbrella (0 to 100 scale, 0 is no effect, 100 is complete control): 0
[2]; 125 g ai/ha
  Foxtail, Giant plant response rating: 0
[2]; 500 g ai/ha
  Foxtail, Giant plant response rating: 0
[3]; 125 g ai/ha
  Ryegrass, Italian plant response rating: 0
[3]; 500 g ai/ha
  Ryegrass, Italian plant response rating: 0
[4]
  Plant response rating, Ducksalad (0 to 100 scale, 0 is no effect, 100 is complete control): 0
[5]; 125 g ai/ha
  Kochia plant response rating: 0
[5]; 500 g ai/ha
  Kochia plant response rating: 0
[6]
  Plant response rating, Rice (0 to 100 scale, 0 is no effect, 100 is complete control): 0
[7]; [21]
  Plant response rating, Pigweed: 0
[7]; [22]
  Plant response rating, Pigweed: 30
[8]; [21]
  Plant response rating, Wheat: 30
[8]; [22]
  Plant response rating, Wheat: 30
[9]; 125 g ai/ha
  Ragweed plant response rating: 0
[9]; 500 g ai/ha
  Ragweed plant response rating: 40
[10]; [21]
  Plant response rating, Corn: 0
[10]; [22]
  Plant response rating, Corn: 0
[11]; [21]
  Plant response rating, Ragweed: 0
[11]; [22]
  Plant response rating, Ragweed: 0
[12]; [21]
  Plant response rating, Foxtail, Giant: 0
[12]; [22]
  Plant response rating, Foxtail, Giant: 0
[13]; [21]
  Plant response rating, Ryegrass, Italian: 0
[13]; [22]
  Plant response rating, Ryegrass, Italian: 0
[14]; 125 g ai/ha
  Barnyardgrass plant response rating: 0
[14]; 500 g ai/ha
  Barnyardgrass plant response rating: 0
[15]; 125 g ai/ha
  Pigweed plant response rating: 0
[15]; 500 g ai/ha
  Pigweed plant response rating: 0
[16]; [21]
  Plant response rating, Galium: 0
[16]; [22]
  Plant response rating, Galium: 0
[17]
  Plant response rating, Barnyardgrass (0 to 100 scale, 0 is no effect, 100 is complete control): 0
[18]; [21]
  Plant response rating, Kochia: 0
[18]; [22]
  Plant response rating, Kochia: 60
[19]; [21]
  Plant response rating, Barnyardgrass: 0
[19]; [22]
  Plant response rating, Barnyardgrass: 0
[20]; [21]
  Plant response rating, Blackgrass: 0
[20]; [22]
  Plant response rating, Blackgrass: 0

## CC(COc1cccc(C(F)(F)F)c1)Nc1ncc(C(F)(F)F)c(N)n1 (stereo not drawn) [Compound 34]
[1]
  Plant response rating, Sedge, Umbrella (0 to 100 scale, 0 is no effect, 100 is complete control): 0
[2]; 125 g ai/ha
  Foxtail, Giant plant response rating: 50
[2]; 500 g ai/ha
  Plant response rating, Foxtail, Giant: 90
[3]; 125 g ai/ha
  Ryegrass, Italian plant response rating: 0
[3]; 500 g ai/ha
  Plant response rating, Ryegrass, Italian: 30
[4]
  Plant response rating, Ducksalad (0 to 100 scale, 0 is no effect, 100 is complete control): 0
[5]; 125 g ai/ha
  Kochia plant response rating: 0
[5]; 500 g ai/ha
  Plant response rating, Kochia: 80
[6]
  Plant response rating, Rice (0 to 100 scale, 0 is no effect, 100 is complete control): 0
[7]; 125 g ai/ha
  Plant response rating, Pigweed: 0
[7]; 500 g ai/ha
  Plant response rating, Pigweed: 60
[8]; 125 g ai/ha
  Plant response rating, Wheat: 0
[8]; 500 g ai/ha
  Plant response rating, Wheat: 0
[9]; 125 g ai/ha
  Ragweed plant response rating: 20
[9]; 500 g ai/ha
  Plant response rating, Ragweed: 80
[10]; 125 g ai/ha
  Plant response rating, Corn: 0
[10]; 500 g ai/ha
  Plant response rating, Corn: 10
[11]; 125 g ai/ha
  Plant response rating, Ragweed: 0
[11]; 500 g ai/ha
  Plant response rating, Ragweed: 0
[12]; 125 g ai/ha
  Plant response rating, Foxtail, Giant: 0
[12]; 500 g ai/ha
  Plant response rating, Foxtail, Giant: 30
[13]; 125 g ai/ha
  Plant response rating, Ryegrass, Italian: 0
[13]; 500 g ai/ha
  Plant response rating, Ryegrass, Italian: 60
[14]; 125 g ai/ha
  Barnyardgrass plant response rating: 80
[14]; 500 g ai/ha
  Plant response rating, Barnyardgrass: 100
[15]; 125 g ai/ha
  Pigweed plant response rating: 10
[15]; 500 g ai/ha
  Plant response rating, Pigweed: 90
[16]; 125 g ai/ha
  Plant response rating, Galium: 30
[16]; 500 g ai/ha
  Plant response rating, Galium: 70
[17]
  Plant response rating, Barnyardgrass (0 to 100 scale, 0 is no effect, 100 is complete control): 0
[18]; 125 g ai/ha
  Plant response rating, Kochia: 30
[18]; 500 g ai/ha
  Plant response rating, Kochia: 70
[19]; 125 g ai/ha
  Plant response rating, Barnyardgrass: 0
[19]; 500 g ai/ha
  Plant response rating, Barnyardgrass: 20
[20]; 125 g ai/ha
  Plant response rating, Blackgrass: 0
[20]; 500 g ai/ha
  Plant response rating, Blackgrass: 30
